# Measured values taken from patent US20080254081A1, “Moist Wipe and Method of Making Same” (GEORGIA-PACIFIC CONSUMER PRODUCTS LP, priority 2002, published 2008).
# Test system: test microbes
# Experiment: Zone of Inhibition Test, antimicrobial efficacy overall
# Format: cell-based
# Conditions: benzalkonium chloride in imbuement
# Description: Each fabric was placed in a commercially prepared imbuement containing benzalkonium chloride as the functional cationic additive (an antimicrobial agent).
# All test results are the average of testing three batches of sample moist wipes. […] Therefore, all of these examples killed the test microbes when benzalkonium chloride was at the measured concentration in solution in the lotion (Table V). The difference (Example 10 versus Example 11) is when comparing the area around the circular piece of test wet wipe. As the benzalkonium chloride (from the imbuement) diffuses away from the test disk, the concentration of benzalkonium chloride decreases with increasing distance from the test disk. Each test microbe has a different minimum inhibitory concentration (MIC) for benzalkonium chloride to effectively kill that microbe. Therefore, if the concentration of benzalkonium chloride is above the MIC, it is observed as a visible zone where the growth of that test microbe has been inhibited. For this reason, some test microbes show no additional zone around the disk (code 0 in Table V), some show a partial zone around the disk (code 1), some show a small inhibition zone (code 2), while other test microbes show a larger inhibition zone (code 3). Therefore, comparisons among example wet wipes can only be made while comparing the same test microbe.
substance,measurement,value
benzalkonium chloride,concentration remaining in solution shown to be sufficient for antibacterial efficacy,0.029%
